# Experimental data taken from patent publication US20240398784A1, “C-LINKED ISOQUINOLINE AMIDES AS LRRK2 INHIBITORS, PHARMACEUTICAL COMPOSITIONS, AND USES THEREOF” (Merck Sharp & Dohme LLC, priority 2021, published 2024).
# Target: LRRK2 G2019S (Homo sapiens, UniProt Q5S007, G2019S)
# Assay: LRRK2 G2019S Km ATP LanthaScreen assay
# Format: biochemical
# Conditions: read-out: LRRK2 pIC50 (converted)
# LRRK2 G2019S, sequence (Q5S007 whole entry G2019S): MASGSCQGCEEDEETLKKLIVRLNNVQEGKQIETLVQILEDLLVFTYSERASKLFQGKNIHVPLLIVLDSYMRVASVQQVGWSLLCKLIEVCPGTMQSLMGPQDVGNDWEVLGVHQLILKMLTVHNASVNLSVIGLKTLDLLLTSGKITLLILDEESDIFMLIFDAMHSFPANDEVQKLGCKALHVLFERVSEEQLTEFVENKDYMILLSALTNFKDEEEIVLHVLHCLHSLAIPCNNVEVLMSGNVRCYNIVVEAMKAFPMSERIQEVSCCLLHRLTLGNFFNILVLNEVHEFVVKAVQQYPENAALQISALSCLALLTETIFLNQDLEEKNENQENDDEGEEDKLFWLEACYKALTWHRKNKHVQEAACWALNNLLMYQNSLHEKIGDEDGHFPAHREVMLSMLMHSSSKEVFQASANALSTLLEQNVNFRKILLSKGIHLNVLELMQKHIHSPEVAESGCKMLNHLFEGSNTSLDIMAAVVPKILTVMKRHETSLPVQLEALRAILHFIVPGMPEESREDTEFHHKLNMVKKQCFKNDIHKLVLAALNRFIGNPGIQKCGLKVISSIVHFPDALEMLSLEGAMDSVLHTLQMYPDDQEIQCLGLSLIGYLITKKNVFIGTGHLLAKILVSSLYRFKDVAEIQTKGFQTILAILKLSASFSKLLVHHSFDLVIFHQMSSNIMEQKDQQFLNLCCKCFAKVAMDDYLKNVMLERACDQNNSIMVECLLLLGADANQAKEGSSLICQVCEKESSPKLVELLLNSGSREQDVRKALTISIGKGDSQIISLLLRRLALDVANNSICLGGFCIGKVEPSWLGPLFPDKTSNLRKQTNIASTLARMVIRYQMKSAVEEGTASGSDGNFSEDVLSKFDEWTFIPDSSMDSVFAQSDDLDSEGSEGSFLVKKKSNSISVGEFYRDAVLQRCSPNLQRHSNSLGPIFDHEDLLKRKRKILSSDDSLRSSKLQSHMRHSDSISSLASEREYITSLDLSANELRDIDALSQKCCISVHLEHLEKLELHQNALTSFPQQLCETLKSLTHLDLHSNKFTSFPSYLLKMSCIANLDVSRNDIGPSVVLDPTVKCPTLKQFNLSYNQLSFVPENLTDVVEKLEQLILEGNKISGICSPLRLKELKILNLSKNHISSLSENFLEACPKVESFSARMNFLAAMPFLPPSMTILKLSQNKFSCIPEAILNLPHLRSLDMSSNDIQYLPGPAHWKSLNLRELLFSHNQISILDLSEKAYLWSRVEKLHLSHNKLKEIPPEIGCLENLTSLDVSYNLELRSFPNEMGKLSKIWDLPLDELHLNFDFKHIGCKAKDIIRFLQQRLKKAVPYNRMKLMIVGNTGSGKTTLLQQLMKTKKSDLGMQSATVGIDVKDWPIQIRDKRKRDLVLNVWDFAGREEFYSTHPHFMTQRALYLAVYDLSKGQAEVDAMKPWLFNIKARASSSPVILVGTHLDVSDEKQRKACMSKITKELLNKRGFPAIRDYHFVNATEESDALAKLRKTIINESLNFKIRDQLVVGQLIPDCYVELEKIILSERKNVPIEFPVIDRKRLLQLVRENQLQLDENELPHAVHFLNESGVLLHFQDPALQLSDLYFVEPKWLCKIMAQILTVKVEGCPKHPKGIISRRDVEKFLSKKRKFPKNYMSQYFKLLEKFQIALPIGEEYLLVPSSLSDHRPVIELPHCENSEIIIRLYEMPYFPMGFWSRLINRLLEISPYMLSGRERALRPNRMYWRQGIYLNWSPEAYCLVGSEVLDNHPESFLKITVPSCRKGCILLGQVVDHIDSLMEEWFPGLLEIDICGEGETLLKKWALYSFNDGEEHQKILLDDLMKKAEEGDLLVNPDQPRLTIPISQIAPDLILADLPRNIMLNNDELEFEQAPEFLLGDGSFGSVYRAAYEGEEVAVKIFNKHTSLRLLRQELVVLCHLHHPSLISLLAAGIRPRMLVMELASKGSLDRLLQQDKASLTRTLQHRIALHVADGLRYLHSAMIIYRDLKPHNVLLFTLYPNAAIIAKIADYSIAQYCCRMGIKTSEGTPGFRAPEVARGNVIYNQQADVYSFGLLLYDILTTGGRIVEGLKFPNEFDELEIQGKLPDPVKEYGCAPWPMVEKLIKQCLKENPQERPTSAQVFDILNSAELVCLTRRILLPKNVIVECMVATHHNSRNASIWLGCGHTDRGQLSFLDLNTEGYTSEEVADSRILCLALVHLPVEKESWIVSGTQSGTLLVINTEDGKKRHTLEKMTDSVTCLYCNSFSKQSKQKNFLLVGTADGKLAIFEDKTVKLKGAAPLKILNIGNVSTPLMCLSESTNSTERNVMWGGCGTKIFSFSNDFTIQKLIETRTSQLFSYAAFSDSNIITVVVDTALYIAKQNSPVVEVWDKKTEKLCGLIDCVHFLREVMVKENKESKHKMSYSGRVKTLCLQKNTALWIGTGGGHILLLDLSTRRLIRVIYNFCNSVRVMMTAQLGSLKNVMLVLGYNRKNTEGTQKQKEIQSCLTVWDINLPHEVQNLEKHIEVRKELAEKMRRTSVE
row,IC50,Compound
1,30.9 nM,"CCC1C(C(=O)Nc2cc3cc(C4CCN(C5(C)COCC5O)CC4)c(Cl)cc3cn2)C1c1ccccn1 (single isomer, unassigned) [Ex-4.55, N-(7-chloro-6-(1-(4-hydroxy-3-methyltetrahydrofuran-3-yl)piperidin-4-yl)isoquinolin-3-yl)-2-ethyl-3-(pyridin-2-yl)cyclopropane-1-carboxamide]"
2,1.17 nM,"CCC1C(C(=O)Nc2cc3cc(C(C)COC)c(Cl)cc3cn2)C1c1cnn(C)c1 (single isomer, unassigned) [Ex-9.14, N-(7-chloro-6-(1-methoxypropan-2-yl)isoquinolin-3-yl)-2-ethyl-3-(1-methyl-1H-pyrazol-4-yl)cyclopropane-1-carboxamide]"
3,2.95 nM,CC(C(=O)Nc1cc2cc(C3(C#N)CC34CC4)ccc2cn1)c1cnn(C)c1 (centres unmarked) [Ex-2.108]
4,66.1 nM,"O=C(Nc1cc2cc(C3CCN(C4COCC4O)CC3)c(Cl)cc2cn1)C1CC1 (single isomer, unassigned) [Ex-12.4, N-(7-chloro-6-(1-(4-hydroxytetrahydrofuran-3-yl)piperidin-4-yl)isoquinolin-3-yl)cyclopropanecarboxamide]"
5,41.7 nM,"CC1(N2CCC(c3cc4cc(NC(=O)C5CC(c6ccccn6)C5)ncc4cc3Cl)CC2)COCC1O (single isomer, unassigned) [Ex-4.76, N-(7-chloro-6-(1-(4-hydroxy-3-methyltetrahydrofuran-3-yl)piperidin-4-yl)isoquinolin-3-yl)-3-(pyridin-2-yl)cyclobutane-1-carboxamide]"
6,2.75 nM,"O=C(Nc1cc2cc(C3CCOCC3)c(Cl)cc2cn1)C1CC12CCOCC2 (centres unmarked) [Ex-7.10, N-(7-chloro-6-(tetrahydro-2H-pyran-4-yl)isoquinolin-3-yl)-6-oxaspiro[2.5]octane-1-carboxamide]"
7,0.0813 nM,"CC1(N2CCC(c3cc4cc(NC(=O)C5CC56CC6)ncc4cc3Cl)CC2)COCC1O (single isomer, unassigned) [Ex-4.5, N-(7-chloro-6-(1-(4-hydroxy-3-methyltetrahydrofuran-3-yl)piperidin-4-yl)isoquinolin-3-yl)spiro[2.2]pentane-1-carboxamide]"
8,141 nM,"Cn1cc(C(=O)Nc2cc3cc(C4CCN([C@]5(C)COC[C@@H]5O)CC4)c(Cl)cc3cn2)cn1 (single isomer, unassigned) [Ex-12.9, N-(7-chloro-6-(1-(4-hydroxy-3-methyltetrahydrofuran-3-yl)piperidin-4-yl)isoquinolin-3-yl)-1-methyl-1H-pyrazole-4-carboxamide]"
9,4.07 nM,"O=C(Nc1cc2cc(C3CCN(C4COC4)CC3F)c(Cl)cc2cn1)C1CC1 (single isomer, unassigned) [Ex-14.2, N-(7-chloro-6-((3R,4R,3S,4R,3R,4S or 3S,4S)-3-fluoro-1-(oxetan-3-yl)piperidin-4-yl)isoquinolin-3-yl)cyclopropanecarboxamide]"
10,21.4 nM,"Cc1cc2cnc(NC(=O)C3CC3C(C)(C)F)cc2cc1C1CCN(C2(C)COCC2O)CC1 (single isomer, unassigned) [Ex-15.5, 2-(2-fluoropropan-2-yl)-N-(6-(1-(4-hydroxy-3-methyltetrahydrofuran-3-yl)piperidin-4-yl)-7-methylisoquinolin-3-yl)cyclopropane-1-carboxamide]"
11,5.75 nM,"CC1CC1C(=O)Nc1cc2cc(C3CCN(C4COC4)CC3)c(Cl)cc2cn1 (single isomer, unassigned) [Ex-9.4, N-(7-chloro-6-(1-(oxetan-3-yl)piperidin-4-yl)isoquinolin-3-yl)-2-methylcyclopropane-1-carboxamide]"
12,0.214 nM,"CC1(N2CCC(c3cc4cc(NC(=O)C5CC56CCOCC6)ncc4cc3Cl)CC2)COC(C2CC2)C1 (single isomer, unassigned) [Ex-6.16, N-(7-chloro-6-(1-(5-cyclopropyl-3-methyltetrahydrofuran-3-yl)piperidin-4-yl)isoquinolin-3-yl)-6-oxaspiro[2.5]octane-1-carboxamide]"
13,61.7 nM,"CC1(C)CC1(C#N)c1ccc2cnc(NC(=O)C3CC3)cc2c1 (single isomer, unassigned) [Ex-18.4, (R or S)-N-(6-(1-cyano-2,2-dimethylcyclopropyl)isoquinolin-3-yl)cyclopropanecarboxamide]"
14,46.8 nM,"COC1CCC(C(=O)Nc2cc3cc(C4CCN(C5(C)COCC5O)CC4)c(Cl)cc3cn2)CC1 (single isomer, unassigned) [Ex-10.2, 1,4-trans, (3R,4R)- or 1,4-trans, (3S,4S)- or 1,4-cis, (3R,4R)- or 1,4-cis, (3S,4S)-N-(7-chloro-6-(1-(4-hydroxy-3-methyltetrahydrofuran-3-yl)piperidin-4-yl)isoquinolin-3-yl)-4-methoxycyclohexane-1-carboxamide]"

# Second part, the molecule before the results:
row,Compound,IC50
1,"CC1(N2CCC(c3cc4cc(NC(=O)[C@@H]5CCCCO5)ncc4cc3Cl)CC2)COCC1O (single isomer, unassigned) [Ex-1.17, (S)-N-(7-chloro-6-(1-((3R,4R or 3S,4S)-4-hydroxy-3-methyltetrahydrofuran-3-yl)piperidin-4-yl)isoquinolin-3-yl)tetrahydro-2H-pyran-2-carboxamide]",0.178 nM
2,CC1(N2CCC(c3cc4cc(NC(=O)C5CC56CCC(F)(F)CC6)ncc4cc3Cl)CC2)COCC1O (centres unmarked) [Ex-2.16],0.407 nM
3,"O=C(C[C@@H](O)C(F)(F)F)Nc1cc2cc(C3CCN(C4COC4)CC3)c(Cl)cc2cn1 [Ex-1.35, (R)-N-(7-chloro-6-(1-(oxetan-3-yl)piperidin-4-yl)isoquinolin-3-yl)-4,4,4-trifluoro-3-hydroxybutanamide]",26.3 nM
4,"CC1(N2CCC(c3cc4cc(NC(=O)c5cnn(C67CC(C6)C7)c5)ncc4cc3Cl)CC2)COCC1O (single isomer, unassigned) [Ex-1.52, 1-(bicyclo[1.1.1]pentan-1-yl)-N-(7-chloro-6-(1-((3R,4R or 3S,4S)-4-hydroxy-3-methyltetrahydrofuran-3-yl)piperidin-4-yl)isoquinolin-3-yl)-1H-pyrazole-4-carboxamide]",1.62 nM
5,"CC(C)(O)C1CC(C(=O)Nc2cc3cc(C4(C#N)CC45CC5)ccc3cn2)C1 (single isomer, unassigned) [Ex-1.26, (1R,3R or 1S,3S)-N-(6-((R or S)-1-cyanospiro[2.2]pentan-1-yl)isoquinolin-3-yl)-3-(2-hydroxypropan-2-yl)cyclobutane-1-carboxamide]",3.39 nM
6,N#CC1(c2ccc3cnc(NC(=O)C4CC4c4cccnc4)cc3c2)CC12CC2 (centres unmarked) [Ex-2.45],11.2 nM
7,"O=C(Nc1cc2cc(C3CCN(C4COC4)CC3)c(Cl)cc2cn1)C1CC12CC2 (single isomer, unassigned) [Ex-9.2]",1.45 nM
8,N#CC1(c2ccc3cnc(NC(=O)C4CC4c4cccnc4)cc3c2)CC12CC2 (centres unmarked) [Ex-2.46],0.851 nM
9,CC1(N2CCC(c3cc4cc(NC(=O)C5CC5C#N)ncc4cc3Cl)CC2)COCC1O (centres unmarked) [Ex-2.32],0.0813 nM
10,CCOC1CC2(C1)CC2C(=O)Nc1cc2cc(C3CCN(C4(C)COCC4F)CC3)c(Cl)cc2cn1 (centres unmarked) [Ex-2.82],0.0813 nM
11,"O=C(Nc1cc2cc(C3CCN(C4COC4)CC3)c(Cl)cc2cn1)C1CC(OC(F)F)C1 (single isomer, unassigned) [Ex-2.4]",14.1 nM
12,"Cn1cc(C2CC2C(=O)Nc2cc3cc(C4(C#N)CC45CC5)ccc3cn2)cn1 (single isomer, unassigned) [Ex-1.23, (1R,2R or 1S,2S)-N-(6-((R or S)-1-cyanospiro[2.2]pentan-1-yl)isoquinolin-3-yl)-2-(1-methyl-1H-pyrazol-4-yl)cyclopropane-1-carboxamide]",1.58 nM
